Test results as given in patent US7109354B2, “Thiophene amidines, compositions thereof, and methods of treating complement-mediated diseases and conditions” (3-Dimensional Pharmaceuticals, Inc., priority 2002, dated 2006).
Values joined by “and” are separate entries in the source; they are usually repeats but may differ in a detail not shown here. Equal entries are not always repeated. Structures can show the parent of a compound that is named as a salt.

Biological target: T1, Activated human C1s (Homo sapiens, UniProt P09871)
T1 construct: purchased Calbiochem (La Jolla, Calif.)
T1 sequence (P09871 438-688 limits assumed): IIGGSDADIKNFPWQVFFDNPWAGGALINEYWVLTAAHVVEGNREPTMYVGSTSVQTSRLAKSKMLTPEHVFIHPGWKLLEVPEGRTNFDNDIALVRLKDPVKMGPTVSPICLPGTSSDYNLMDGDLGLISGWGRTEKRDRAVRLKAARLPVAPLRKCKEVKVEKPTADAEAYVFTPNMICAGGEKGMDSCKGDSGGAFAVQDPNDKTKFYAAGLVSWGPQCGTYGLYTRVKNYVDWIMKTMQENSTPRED
T1 sequence (P09871 16-437 partner limits assumed): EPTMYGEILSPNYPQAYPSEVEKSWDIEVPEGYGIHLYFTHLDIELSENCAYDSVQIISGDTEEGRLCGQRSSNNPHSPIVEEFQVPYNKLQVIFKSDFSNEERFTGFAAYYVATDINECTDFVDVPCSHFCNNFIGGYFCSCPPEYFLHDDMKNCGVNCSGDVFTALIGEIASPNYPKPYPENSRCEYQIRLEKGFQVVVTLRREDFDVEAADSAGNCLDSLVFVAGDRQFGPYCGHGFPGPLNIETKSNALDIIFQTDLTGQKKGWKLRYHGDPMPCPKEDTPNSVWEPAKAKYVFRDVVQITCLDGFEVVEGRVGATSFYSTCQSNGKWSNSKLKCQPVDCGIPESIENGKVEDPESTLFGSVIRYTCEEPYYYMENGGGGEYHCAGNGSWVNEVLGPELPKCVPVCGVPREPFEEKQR
Experiment: In vitro inhibition of C1s (Ki determination, C1s-catalyzed hydrolysis of Z-Gly-Arg-S-Bzl, DTNB readout)
Assay type: biochemical
Conditions: substrate Z-Gly-Arg-S-Bzl 45 μM, DTNB 200 μM, C1s 2.3 nM, pH 7.5, 37° C., absorbance at 405 nm
Method: Reagents: All buffer salts were obtained from Sigma Chemical Company (St. Louis, Mo.), and were of the highest purity available. DTNB was purchased from Pierce (Rockford, Ill.). Z-Gly-Arg-S-Bzl was purchased from Enzyme Systems Products (Livermore, Calif.). Activated human C1s was purchased from Calbiochem (La Jolla, Calif.).
Test compounds are prepared as a 10 μM solution in DMSO. Dilutions are prepared in DMSO yielding 7 final concentrations encompassing a 700-fold concentration range.
Reactions were initiated by the addition of a 10 μL aliquot of the enzyme, and the absorbance increase at 405 nm is continuously recorded for 15 minutes in a Molecular Devices plate reader. Final DMSO concentration was 4.3%. […] The ratio of the velocity (rate of change in absorbance as a function of time) for a sample containing no test compound is divided by the velocity of a sample containing test compound, and is plotted as a function of test compound concentration. The data are fit to a linear regression, and the value of the slope of the line calculated. The inverse of the slope is the experimentally determined Ki value.

Ki | SMILES
6 to 23 nM | CSc1sc(C(=N)N)cc1S(=O)(=O)c1cccc(-c2cc(-c3ccccc3)ccc2O)c1 [Example 1, 4-(4′-Hydroxy-[1,1′;3′,1′]terphenyl-3′-sulfonyl)-5-methylsulfanyl-thiophene-2-carboxamidine trifluoroacetate]
6 to 23 nM | CSc1sc(C(=N)N)cc1S(=O)(=O)c1cccc(-c2cccc(-c3ccccc3)c2O)c1 [Example 2]
6 to 23 nM | CSc1sc(C(=N)N)cc1S(=O)(=O)c1cccc(-c2cccc(C(=O)OC(C)C)c2C)c1 [Example 3, 3′-(5-Carbamimidoyl-2-methylsulfanyl-thiophene-3-sulfonyl)-2-methyl-biphenyl-3-carboxylic acid isopropyl ester trifluoroacetate]
6 to 23 nM | CSc1sc(C(=N)N)cc1S(=O)(=O)c1cccc(-c2c(C)cccc2C(=O)O)c1 [Example 4, 3′-(5-Carbamimidoyl-2-methylsulfanyl-thiophene-3-sulfonyl)-6-methyl-biphenyl-2-carboxylic acid trifluoroacetate]
6 to 23 nM | CSc1sc(C(=N)N)cc1S(=O)(=O)c1cccc(-c2c(C)cccc2CO)c1 [Example 5, 4-(6′-Hydroxymethyl-2′-methyl-biphenyl-3-sulfonyl)-5-methylsulfanyl-thiophene-2-carboxamidine]
6 to 23 nM | CSc1sc(C(=N)N)cc1S(=O)(=O)c1cccc(-c2cccc(C=O)c2C)c1 [Example 6, 4-(3′-formyl-2′-methyl-biphenyl-3-sulfonyl)-5-methylsulfanyl-thiophene-2-carboxamidine trifluoroacetate]
6 to 23 nM | CSc1sc(C(=N)N)cc1S(=O)(=O)c1cccc(-c2cc(CO)ccc2C)c1 [Example 7, 4-(5′-Hydroxymethyl-2′-methyl-biphenyl-3-sulfonyl)-5-methylsulfanyl-thiophene-2-carboxamidine trifluoroacetate]
6 to 23 nM | CSc1sc(C(=N)N)cc1S(=O)(=O)c1cccc(-c2cc(C=O)ccc2C)c1 [Example 8, 4-(5′-Formyl-2′-methyl-biphenyl-3-sulfonyl)-5-methylsulfanyl-thiophene-2-carboxamidine trifluoroacetate]
6 to 23 nM | CSc1sc(C(=N)N)cc1S(=O)(=O)c1cccc(-c2cnccc2C)c1 [Example 9, 4-[3-(4-Methyl-pyridin-3-yl)-benzenesulfonyl]-5-methylsulfanyl-thiophene-2-carboxamidine trifluoroacetate]
6 to 23 nM | CSc1sc(C(=N)N)cc1S(=O)(=O)c1cccc(-c2cccnc2Cl)c1 [Example 10, 4-[3-(2-Chloro-pyridin-3-yl)-benzenesulfonyl]-5-methylsulfanyl-thiophene-2-carboxamidine; bis-trifluoroacetate]
6 to 23 nM and 23 nM | CSc1sc(C(=N)N)cc1S(=O)(=O)c1cccc(-c2ncccc2C)c1 [Example 11, 4-[3-(3-Methyl-pyridin-2-yl)-benzenesulfonyl]-5-methylsulfanyl-thiophene-2-carboxamidine bis-trifluoroacetate]
6 to 23 nM | COc1cc(Br)cc(S(=O)(=O)c2cc(C(=N)N)sc2SC)c1 [Example 13, 4-(3-Bromo-5-methoxy-benzenesulfonyl)-5-methylsulfanyl-thiophene-2-carboxamidine hydrochloride]
6 to 23 nM | COc1cc(-c2ccccc2)cc(S(=O)(=O)c2cc(C(=N)N)sc2SC)c1 [Example 15, 4-(5-Methoxy-biphenyl-3-sulfonyl)-5-methylsulfanyl-thiophene-2-carboxamidine hydrochloride]
6 to 23 nM | C=CCOc1cc(-c2ccccc2)cc(S(=O)(=O)c2cc(C(=N)N)sc2SC)c1 [Example 16, 4-(5-Allyloxy-biphenyl-3-sulfonyl)-5-methylsulfanyl-thiophene-2-carboxamidine]
6 to 23 nM | CSc1sc(C(=N)N)cc1S(=O)(=O)c1cc(OCc2ccccc2)cc(-c2ccccc2)c1 [Example 17, 4-(5-Benzyloxy-biphenyl-3-sulfonyl)-5-methylsulfanyl-thiophene-2-carboxamidine hydrochloride]
6 to 23 nM | CSc1sc(C(=N)N)cc1S(=O)(=O)c1cc(O)cc(-c2ccccc2Cl)c1 [Example 18, 4-(2′-Chloro-5-hydroxy-biphenyl-3-sulfonyl)-5-methylsulfanyl-thiophene-2-carboxamidine trifluoroacetate]
6 to 23 nM | COc1cc(-c2ccccc2Cl)cc(S(=O)(=O)c2cc(C(=N)N)sc2SC)c1 [Example 19, 4-(2′-Chloro-5-methoxy-biphenyl-3-sulfonyl)-5-methylsulfanyl-thiophene-2-carboxamidine trifluoroacetate]
6 to 23 nM | N=C(N)c1cc(S(=O)(=O)c2cccc(-c3cccc(C=O)c3)c2)c(Br)s1 [Example 20, 5-Bromo-4-(3′-formyl-biphenyl-3-sulfonyl)-thiophene-2-carboxamidine trifluoroacetate]
6 to 23 nM | Cc1ccccc1-c1cccc(S(=O)(=O)c2cc(C(=N)N)sc2Br)c1 [Example 24, 5-Bromo-4-(2′-methyl-biphenyl-3-sulfonyl)-thiophene-2-carboxamidine trifluoroacetate]
6 to 23 nM | CSc1sc(C(=N)N)cc1S(=O)(=O)c1cccc(-c2c(C)cccc2N)c1 [Example 25, 4-(2′-Amino-6′-methyl-biphenyl-3-sulfonyl)-5-methylsulfanyl-thiophene-2-carboxamidine trifluoroacetate]
6 to 23 nM | CSc1sc(C(=N)N)cc1S(=O)(=O)c1cccc(-c2ccc(O)c(C=O)c2)c1 [Example 26, 4-(3′-Formyl-4′-hydroxy-biphenyl-3-sulfonyl)-5-methylsulfanyl-thiophene-2-carboxamidine trifluoroacetate]
6 to 23 nM | CSc1sc(C(=N)N)cc1S(=O)(=O)c1cccc(-c2cccc(C(O)C(F)(F)F)c2)c1 (stereo not drawn) [Example 28, 5-Methylsulfanyl-4-[3′-(2,2,2-trifluoro-1-hydroxy-ethyl)-biphenyl-3-sulfonyl]-thiophene-2-carboxamidine trifluoroacetate]
6 to 23 nM | CSc1sc(C(=N)N)cc1S(=O)(=O)c1cccc(-c2cccc(C(=O)C(F)(F)F)c2)c1 [Example 29, 5-Methylsulfanyl-4-[3′-(2,2,2-trifluoro-acetyl)-biphenyl-3-sulfonyl]-thiophene-2-carboxamidine trifluoroacetate]
6 to 23 nM | CSc1sc(C(=N)N)cc1S(=O)(=O)c1cccc(-c2cc3[nH]cnc3cc2C)c1 [Example 30, 4-[3-(6-Methyl-3H-benzoimidazol-5-yl)-benzenesulfonyl]-5-methylsulfanyl-thiophene-2-carboxamidine bis-trifluoroacetate]
6 to 23 nM | CSc1sc(C(=N)N)cc1S(=O)(=O)c1cccc(-c2ccccc2C(C)O)c1 (stereo not drawn) [Example 32, 4-[2′-(1-Hydroxy-ethyl)-biphenyl-3-sulfonyl]-5-methylsulfanyl-thiophene-2-carboxamidine trifluoroacetate]
6 to 23 nM | CSc1sc(C(=N)N)cc1S(=O)(=O)c1cccc(-c2ccc(C(C)O)cc2)c1 (stereo not drawn) [Example 33, 4-[4′-(1-Hydroxy-ethyl)-biphenyl-3-sulfonyl]-5-methylsulfanyl-thiophene-2-carboxamidine Trifluoroacetate]

SMILES | Ki
C=CCOc1cc(Br)cc(S(=O)(=O)c2cc(C(=N)N)sc2SC)c1 [Example 12, 4-(3-Allyloxy-5-bromo-benzenesulfonyl)-5-methylsulfanyl-thiophene-2-carboxamidine hydrochloride] | 6 to 23 nM
